# Structures can show the parent of a compound that is named as a salt. Where two headings read alike, the source gives them in different places.
# Columns and labels:
# human 5-HT1A receptors = target: T1, human 5-HT1A receptors (Homo sapiens, UniProt P08908); assay: [3H] 8-OHDPAT displacement from 5-HT1A receptor in transfected CHO cells; type: binding
# T1 construct: expressed in transfected cells; host or cells: CHO cells
# T1 sequence (P08908 1-422): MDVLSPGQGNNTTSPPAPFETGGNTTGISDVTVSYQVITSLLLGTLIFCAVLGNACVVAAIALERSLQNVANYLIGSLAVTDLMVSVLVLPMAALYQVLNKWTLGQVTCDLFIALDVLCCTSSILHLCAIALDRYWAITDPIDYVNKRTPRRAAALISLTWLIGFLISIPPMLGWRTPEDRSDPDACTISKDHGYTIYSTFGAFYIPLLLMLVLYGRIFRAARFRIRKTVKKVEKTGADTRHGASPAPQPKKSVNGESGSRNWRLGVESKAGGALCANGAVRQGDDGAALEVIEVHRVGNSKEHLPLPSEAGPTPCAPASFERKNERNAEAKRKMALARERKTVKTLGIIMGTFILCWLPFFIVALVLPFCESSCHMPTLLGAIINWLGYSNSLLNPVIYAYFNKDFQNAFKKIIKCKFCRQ
# Description: High affinity for the serotonin 5-HT1A receptor was established by testing the claimed compound's ability to displace [^3H] 8-OHDPAT (dipropylamino-tetralin) from the 5-HT1A serotonin receptor following a modification of the procedure of Hall et al., J. Neurochem. 44, 1685 (1985) which utilizes CHO cells stably transfected with human 5-HT1A receptors.
# serotonin transporter = target: T2, serotonin transporter (Rattus norvegicus, UniProt P31652); assay: 3H-paroxetine displacement from rat frontal cortical membranes (serotonin transporter affinity); type: binding
# T2 construct: displace ^3H-paroxetine from male rat frontal cortical membranes; from tissue; host or cells: male rat frontal cortex membranes
# T2 sequence (P31652 whole entry): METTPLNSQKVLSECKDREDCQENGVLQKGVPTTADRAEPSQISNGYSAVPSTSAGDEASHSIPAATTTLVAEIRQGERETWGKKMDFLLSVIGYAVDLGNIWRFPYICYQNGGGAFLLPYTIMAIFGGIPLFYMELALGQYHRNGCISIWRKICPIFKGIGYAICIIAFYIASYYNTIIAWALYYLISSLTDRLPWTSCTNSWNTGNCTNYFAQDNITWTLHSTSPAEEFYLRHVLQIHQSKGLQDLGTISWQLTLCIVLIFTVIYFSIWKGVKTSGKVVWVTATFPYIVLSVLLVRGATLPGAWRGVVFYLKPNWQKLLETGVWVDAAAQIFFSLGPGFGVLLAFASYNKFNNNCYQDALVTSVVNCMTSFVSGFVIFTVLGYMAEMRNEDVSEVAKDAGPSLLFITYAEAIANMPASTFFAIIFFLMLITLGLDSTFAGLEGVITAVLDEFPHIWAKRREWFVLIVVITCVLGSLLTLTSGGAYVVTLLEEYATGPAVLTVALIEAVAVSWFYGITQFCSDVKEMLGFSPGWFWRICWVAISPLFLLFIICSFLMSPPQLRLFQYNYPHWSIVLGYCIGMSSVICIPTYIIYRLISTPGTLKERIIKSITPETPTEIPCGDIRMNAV
# [1] = target: T3, cloned human 5-HT1A receptors (Homo sapiens, UniProt P08908); assay: 35S-GTPγS binding assay, agonist activity at 5-HT1A receptors; type: biochemical; conditions: for Emax: read-out: 5-HT1A Function (Emax); for EC50: 35S-GTPγS binding to membranes containing cloned human 5-HT1A receptors, read-out: 5-HT1A Function EC50
# T3 construct: expressed in transfected cells
# T3 sequence (P08908 1-422): T1 sequence (P08908 1-422)
# Description: Agonist activity at 5-HT1A receptors was established by using a ^35S-GTPγbinding assay similar to that used by Lazareno and Birdsall (Br. J. Pharmacol. 109: 1120, 1993), in which the test compound's ability to affect the binding of ^35S-GTPγS to membranes containing cloned human 5-HT1A receptors was determined. Agonists produce an increase in binding whereas antagonists produce no increase but rather reverse the effects of the standard agonist 8-OHDPAT. The test compound's maximum stimulatory effect is represented as the Emax, while its potency is defined by the EC50.
# [2] = displacement of [3H] 8-OHDPAT, CHO cells stably transfected with human 5-HT1A receptors, read-out: 5-HT1A Receptor Affinity KI
# [3] = displacement of 3H-paroxetine, male rat frontal cortical membranes, read-out: 5-HT Transporter Affinity KI
Compound,Ki (human 5-HT1A receptors; [2]) [nM],Ki (serotonin transporter; [3]) [nM],Emax [1] [%],melting point,Ki (serotonin transporter) [nM],EC50 [1] [nM],Ki (human 5-HT1A receptors) [nM],"5-HT1A Function (Emax) ([1]; maximum stimulatory effect, 35S-GTPγS binding, cloned human 5-HT1A receptors, value in parentheses)"
"Fc1ccc2[nH]c(CC3CCN(CC4CCc5ccccc5O4)CC3)cc2c1 (stereo not shown) [Example 1, 2-{[1-(3,4-Dihydro-2H-chromen-2-ylmethyl)-4-piperidinyl]methyl}-5-fluoro-1H-indole]",265,0.13,–,–,–,–,–,–
"C1=C(c2c[nH]c3ccccc23)CCN(CC2CCc3ccccc3O2)C1 (stereo not shown) [Example 2, 3-[1-(3,4-Dihydro-2H-chromen-2-ylmethyl)-1,2,3,6-tetrahydro-4-pyridinyl]-1H-indole]",281,–,50,171 to 173 °C,1.18,–,–,–
"COc1cccc2c1OC(CN1CC=C(c3c[nH]c4ccc(F)cc34)CC1)C=C2 (stereo not shown) [Example 8, 5-Fluoro-3-(1-{[8-methoxy-2H-chromen-2-yl]methyl}-1,2,3,6-tetrahydro-4-pyridinyl)-1H-indole]",143,–,60,189 to 191 °C (dec.),20,1710,–,–
"COc1cccc2c1OC(CN1CC=C(c3c[nH]c4cc(F)ccc34)CC1)CC2 (stereo not shown) [Example 7, 6-Fluoro-3-(1-{[8-methoxy-3,4-dihydro-2H-chromen-2-yl]methyl}-1,2,3,6-tetrahydro-4-pyridinyl)-1H-indole]",–,–,64,> 170 °C (dec.),8.5,854,45,–
"Fc1ccc2c(C3=CCN(CC4CCc5ccccc5O4)CC3)c[nH]c2c1 (stereo not shown) [Example 6, 3-[1-(3,4-Dihydro-2H-chromen-2-ylmethyl)-1 2,3,6-tetrahydro-4-pyridinyl]-6-fluoro-1H-indole]",–,–,100,160 to 161 °C,0.34,2480,–,–
"Fc1ccc2[nH]c(CC3CCN(CC4CCc5ccccc5O4)CC3)cc2c1 (stereo not shown) (as salt: oxalate) (hydrate or solvate) [Example 1, 2-{[1-(3,4-Dihydro-2H-chromen-2-ylmethyl)-4-piperidinyl]methyl}-5-fluoro-1H-indole]",–,–,–,187 to 190 °C,–,–,–,–
"COc1cccc2c1OC(CN1CC=C(c3c[nH]c4ccc(F)cc34)CC1)CC2 (stereo not shown) [Example 4, 5-Fluoro-3-(1-{[8-methoxy-3,4-dihydro-2H-chromen-2-yl]methyl}-1,2,3,6-tetrahydro-4-pyridinyl)-1H-indole]",–,–,92,177 to 180 °C (dec.),9.5,283,34.4,–
"COc1cccc2c1OC(CN1CC=C(c3c[nH]c4ccccc34)CC1)CC2 (stereo not shown) [Example 5, (3-(1-{8-Methoxy-3,4-dihydro-2H-chromen-2-yl]methyl}-1,2,3,6-tetrahydro-4-pyridinyl)-1H-indole]",39,10,–,–,–,189,–,79.0
"Fc1ccc2[nH]cc(C3=CCN(CC4CCc5ccccc5O4)CC3)c2c1 (stereo not shown) [Example 3, 3-[1-(3,4-Dihydro-2H-chromen-2-ylmethyl)-1,2,3,6-tetrahydro-4-pyridinyl]-5-fluoro-1H-indole]",299,–,83,172 to 175 °C,4.84,398,–,–
"COc1cccc2c1OC(CN1CC=C(c3c[nH]c4ccccc34)CC1)C=C2 (stereo not shown) [Example 9, 3-(1-{[8-Methoxy-2H-chromen-2-yl]methyl}-1,2,3,6-tetrahydro-4-pyridinyl)-1H-indole]",–,–,67,198 to 200 °C (dec.),9.5,208,96.5,–

# Reference: patent US6667322B2, “Antidepressant chroman and chromene derivatives of 3-(1,2,3,6-tetrahydro-4-pyridinyl)-1H-indole” (Wyeth, priority 2001, dated 2003)
